Counter-ions that a name gives are not always drawn.

A short description of the data set: RP, Waters ACQUITY UPLC BEH C18, 38 °C, 0.24 mL/min; A: water + 0.1% formic acid, pH 3; B: acetonitrile + 0.1% formic acid, pH 3; gradient (min/%B) 0/0 0.25/0 0.4/9 0.8/17 1.9/100 2.1/100 2.11/0 3/0. The note with it: stereoisomer not certain.
In the case of `NCCc1c[nH]c2ccccc12` [3-(2-Aminoethyl)indole Hydrochloride], the LC retention time is 1.22 min. On to `O=C(O)CCc1ccc(O)cc1` [3-(4-Hydroxyphenyl)-propionic acid], for which the LC retention time turned out to be 1.38 min.

On to `Nc1ncn[nH]1` [3-Amino-1,2,4-triazole], for which the LC retention time turned out to be 0.18 min. Turning to `N[C@@H](Cc1ccc(O)c(Cl)c1)C(=O)O` [3-Chloro-L-tyrosine hydrochloride], the LC retention time is 1.1 min.

Consider `CC(O)(CC(=O)O)CC(=O)O` [3-Hydroxy-3-methylglutarate], for which the LC retention time came out at 0.68 min. Take `Nc1c(O)cccc1C(=O)O` [3-Hydroxyanthranilic acid]: the LC retention time was determined as 1.13 min.

In the case of `O=C(O)C(O)c1cccc(O)c1` (stereo unspecified) [3-Hydroxymandelic acid], the LC retention time was 1 min. The same measure for `Oc1cccnc1` [3-Hydroxypyridine]: 0.24 min. With `O=S(=O)(O)Oc1c[nH]c2ccccc12` [3-Indoxylsulfate potassium salt], the LC retention time is 1.24 min. Regarding `COc1cccc(C=CC(=O)O)c1` [3-Methoxycinnamic acid], the LC retention time worked out at 1.67 min. As for `Cn1cncc1C[C@H](N)C(=O)O` [3-Methyl-L-histidine], the LC retention time stood at 0.15 min. In the case of `N#Cc1cccnc1` [3-cyanopyridine], the LC retention time worked out at 1.18 min.

For `Nc1ccc(C(=O)O)cc1` [4-Aminobenzoic acid], the LC retention time was determined as 1.13 min. `Nc1ccc(C(=O)NCC(=O)O)cc1` [4-Aminohippurate]: the LC retention time came to 0.93 min. Turning to `Nc1ccc(O)cc1` [4-Aminophenol hydrochloride], the LC retention time turned out to be 0.2 min. On to `O=C(O)/C=C/c1ccc(O)cc1` [4-Coumaric acid], for which the LC retention time was found to be 1.41 min. For the compound `COc1cc(C=CC=O)ccc1O` [4-Hydroxy-3-methoxycinnamaldehyde], the LC retention time came out at 1.52 min. As to `O=C(O)c1ccc(O)cc1` [4-Hydroxybenzoate], the LC retention time came to 1.25 min. With `O=c1cc[nH]cc1` [4-Hydroxypyridine], the LC retention time is 0.25 min. In the case of `COc1ccc(C=CC(=O)O)cc1` [4-Methoxycinnamic acid], the LC retention time came out at 1.65 min. For `Cc1ncsc1CCO` [4-Methyl-5-thiazoleethanol], the LC retention time is 1.08 min. Regarding `O=[N+]([O-])c1ccc(OP(=O)(O)O)cc1` [4-Nitrophenyl phosphate disodium salt hexahydrate], the LC retention time turned out to be 0.92 min. For the compound `CCCCCC1CCC(=O)O1` (stereo unspecified) [4-Nonanolide], the LC retention time turned out to be 1.87 min. With `O=C(CCc1ccccc1)c1c(O)cc(O)cc1OC1OC(CO)C(O)C(O)C1O` (stereo unspecified) [4-deoxyphloridzin], the LC retention time came to 1.5 min. With `CC(C)CCC(=O)O` [4-methyl valeric acid], the LC retention time came out at 0.56 min. As for `CC(=O)Oc1ccc2c(C)cc(=O)oc2c1` [4-methylumbelliferyl acetate], the LC retention time turned out to be 1.69 min. Consider `CSCC1OC(n2cnc3c(N)ncnc32)C(O)C1O` (stereo unspecified) [5'-Deoxy-5'-Methylthioadenosine], for which the LC retention time came to 1.14 min. The same measure for `O=C1CCNC(=O)N1` [5,6-Dihydrouracil]: 0.2 min; for `NCCCCC(=O)O` [5-Aminovaleric acid]: 0.23 min. The same measure for `O=C(O)Cc1c[nH]c2ccc(O)cc12` [5-Hydroxyindole-3-acetate (5-HIAA)]: 1.27 min; for `Cc1cnc(=O)[nH]c1N` [5-Methylcytosine hydrochloride]: 0.25 min. As for `CC(C)=CCNc1ncnc2nc[nH]c12` [6-(gamma,gamma-Dimethylallylamino)purine], the LC retention time was found to be 1.32 min. Consider `[NH3+]CCCCCC(=O)[O-]` [6-Aminohexanoic acid], for which the LC retention time was 0.41 min. For `CNCC(O)c1cccc(O)c1` [(R)-(-)-Phenylephrine hydrochloride], the LC retention time came out at 0.59 min. Turning to `C[C@@H](N)P(=O)(O)O` [(S)-(+)-1-Aminoethylphosphonic acid], the LC retention time was found to be 0.16 min. On to `c1ccc(NC[C@@H]2CCCN2)cc1` [(S)-(+)-2-(anilinomethyl)pyrrolidine], for which the LC retention time is 1.27 min. As to `CC(=O)Nc1ccc(O)cc1` [Acetaminophen], the LC retention time turned out to be 1.15 min. Under `CC(=O)OCC[N+](C)(C)C` [Acetylcholine chloride] stands 0.24 min. Take `Nc1ncnc2nc[nH]c12` [Adenine]: the LC retention time was determined as 0.32 min. Regarding `Nc1ncnc2c1ncn2C1OC(CO)C(OP(=O)(O)O)C1O` (stereo unspecified) [Adenosine 3'-monophosphate From Yeast], the LC retention time was 0.64 min. Under `Nc1ncnc2c1ncn2C1OC(COP(=O)(O)O)C(O)C1O` (stereo unspecified) [Adenosine-5'-monophosphate sodium salt] stands 0.39 min; under `Nc1ncnc2c1ncn2C1OC(CO)C(O)C1O` (stereo unspecified) [Adenosine], 1.06 min; under `NCCCCN=C(N)N` [Agmatine sulfate salt], 0.15 min.

In the case of `NC12CC3CC(CC(C3)C1)C2` [Amantadine hydrochloride], the LC retention time was 1.28 min. Regarding `NOCC(=O)O` [Aminooxyacetic acid Hemihydrochloride], the LC retention time amounted to 0.17 min. Under `Nc1ccccc1` [Aniline] stands 0.42 min.

`Nc1ccccc1C(=O)O` [Anthranilic acid]: the LC retention time was found to be 1.39 min.

Consider `NC(=NCCCC(N)C(=O)O)NC(CC(=O)O)C(=O)O` (stereo unspecified) [Argininosuccinic acid disodium salt], for which the LC retention time came out at 0.29 min. The same measure for `N=C(N)c1ccccc1` [Benzamidine hydrochloride hydrate]: 0.78 min; for `C[N+](C)(C)CC=O` [Betaine aldehyde chloride]: 0.16 min. Regarding `C[N+](C)(C)CC(=O)[O-]` [Betaine], the LC retention time was 0.17 min. For `NCCCCCN` [Cadaverine], the LC retention time is 0.14 min.

Consider `Cn1c(=O)c2c(ncn2C)n(C)c1=O` [Caffeine,Anhydrous], for which the LC retention time is 1.24 min. Take `CC(C)(CO)C(O)C(=O)NCCC(=O)O` (stereo not drawn) [Calcium (+)-pantothenate]: the LC retention time was found to be 1.11 min. For `OCC1OC(Oc2cc3c(O)cc(O)cc3[o+]c2-c2ccc(O)cc2)C(O)C(O)C1O` (stereo unspecified) [Callistephin Chloride], the LC retention time came to 1.25 min. For the compound `COc1cc(CNC(=O)CCCCC=CC(C)C)ccc1O` [Capsaicin], the LC retention time was found to be 1.93 min. As to `O=C(O)CCl` [Chloroacetic acid], the LC retention time came out at 0.36 min.

Regarding `C[N+](C)(C)CCO` [Choline chloride], the LC retention time came out at 0.17 min. With `CN1CC(=O)NC1=N` [Creatinine,anhydrous], the LC retention time was 0.19 min.

Consider `Oc1cc(O)c2cc(OC3OCC(O)C(O)C3O)c(-c3ccc(O)c(O)c3)[o+]c2c1` (stereo not drawn) [Cyanidin-3-O-alpha-arabinopyranoside], for which the LC retention time turned out to be 1.23 min. Turning to `Nc1ccn(C2OC(CO)C(O)C2O)c(=O)n1` (stereo unspecified) [Cytidine,cell culture tested], the LC retention time stood at 0.34 min. With `Nc1ccn(C2OC3COP(=O)(O)OC3C2O)c(=O)n1` (stereo unspecified) [Cytidine-3',5'-cyclicmonophosphate], the LC retention time is 0.67 min. For the compound `Nc1ccn(C2OC(CO)C(OP(=O)(O)O)C2O)c(=O)n1` (stereo unspecified) [Cytidine-3'-monophosphate], the LC retention time amounted to 0.36 min.

For `Nc1ccn(C2OC(COP(=O)(O)O)C(O)C2O)c(=O)n1` (stereo unspecified) [Cytidine-5'-monophosphate monohydrate], the LC retention time amounted to 0.24 min.

Consider `Nc1ccnc(=O)[nH]1` [Cytosine], for which the LC retention time worked out at 0.19 min. With `OCC1OC(OC2C(CO)OC(O)C(O)C2O)C(O)C(O)C1O` [D-(+)- Maltose monohydrate], the LC retention time came to 0.17 min. Under `N[C@H]1C(O)O[C@H](CO)[C@@H](O)[C@@H]1O` (stereo partly drawn) [D-(+)-Glucosamine hydrochloride] stands 0.15 min. Turning to `OCC1OC(OC2C(O)C(CO)OC2(CO)OC2OC(CO)C(O)C(O)C2O)C(O)C(O)C1O` [D-(+)-Melezitose hydrate], the LC retention time is 0.21 min. For the compound `O=C(O)C1(O)CC(O)C(O)C(O)C1` [D-(-)-Quinic acid], the LC retention time was 0.19 min.

For `CC([NH3+])C(=O)NC(C)C(=O)[O-]` [D-Ala-D-ala], the LC retention time stood at 0.19 min. The same measure for `N[C@H](CS)C(=O)O` [D-Cysteine]: 0.15 min; for `O=C[C@H](O)[C@H](O)COP(=O)(O)O` [D-Erythrose-4-phosphate sodium salt]: 0.16 min; for `O=C(O)[C@H](O)[C@@H](O)[C@H](O)[C@H](O)CO` [D-Gluconic acid sodium salt]: 0.17 min.

In the case of `CCCCCCCCCCCCCC=CC(O)C(N)COC1OC(CO)C(O)C(O)C1O` [D-Glucosyl-beta1-1'-D-erythoro-Sphingosine], the LC retention time came out at 1.84 min. For `O=C1OC2C(O)C(O)OC2C1O` [D-Glucurono-6,3-lactone], the LC retention time came to 0.19 min.

Turning to `COC1C(O)C(O)C(O)C(O)C1O` [D-Pinitol], the LC retention time was 0.17 min. `CC(C)[C@@H](O)C(=O)O` [D-alpha-Hydroxyisovaleric acid]: the LC retention time turned out to be 1.14 min. The same measure for `CCCCCCCCCCCCCCCC(O)C(N)CO` [D-erythro-Dihydrosphingosine]: 1.98 min. Take `O=c1c(-c2ccc(O)cc2)coc2cc(O)ccc12` [Daidzein]: the LC retention time stood at 1.57 min. `O=c1c(-c2ccc(O)cc2)coc2cc(OC3OC(CO)C(O)C(O)C3O)ccc12` (stereo unspecified) [Daidzin]: the LC retention time is 1.34 min. Take `O=c1ccc2ccc(O)c(O)c2o1` [Daphnetin]: the LC retention time came to 1.34 min.

These data come from the RepoRT retention time repository (doi:10.1093/pcp/pcn183).
